Experimental data: US8658661B2, “Oxadiazole inhibitors of leukotriene production” (Boehringer Ingelheim International GmbH, priority 2010, dated 2014)
Where two headings read alike, the source gives them in different places.

Columns and labels:
[1] = target: T1, recombinant human FLAP protein (Homo sapiens, UniProt P20292); test: FLAP binding assay (SPA, displacement of [125I]L-691,831)
T1 construct: made in house; host or cells: Sf9 insect cells (100,000×g membrane pellet used)
T1 sequence (P20292 1-161): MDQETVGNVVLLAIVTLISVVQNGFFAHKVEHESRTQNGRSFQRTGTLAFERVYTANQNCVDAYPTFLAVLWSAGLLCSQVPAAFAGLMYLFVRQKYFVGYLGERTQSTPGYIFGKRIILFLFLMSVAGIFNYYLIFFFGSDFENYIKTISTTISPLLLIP
How it was run: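 Membranes from sf9 cells expressing human FLAP in pH 7.5 Tris buffer (MgCl2, EDTA, PMSF). Non-specific binding defined with 10 μM cold L-691,831.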

[2] = system: synthesis of LTB4 in human whole blood; test: Human whole blood assay (inhibition of LTB4 synthesis, calcimycin stimulated); format: cell-based; details: heparinized human whole blood, calcimycin 20 μM, plasma LTB4
How it was run: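 Heparinized human whole blood was preincubated with compound for 15 min at 37° C, then stimulated with calcimycin (20 μM final, in PBS pH 7.4) for a further 30 min at 37° C. Plasma LTB4 was quantified by antibody-based homogeneous time-resolved fluorescence.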

[3] = membranes of sf9 cells expressing recombinant human FLAP, [125I]L-691,831 probe, read-out: FLAP binding IC50

SMILES | IC50 [1, 3] | IC50 [2] | IC50 [1]
C[C@@](c1ccc(-c2ccc(N)nc2)cc1)(c1noc(N2CCC(O)CC2)n1)C1CC1 [Example 282, 1-(3-{(R)-1-[4-(6-Amino-pyridin-3-yl)-phenyl]-1-cyclopropyl-ethyl}-[1,2,4]oxadiazol-5-yl)-piperidin-4-ol] | 6.5 nM | 44 nM | 
CN(C)C(=O)Cn1cc(-c2nc([C@@](C)(c3ccc(-c4cnc(N)nc4)cc3)C3CCC3)no2)cn1 [Example 104, 2-[4-(3-{(1R)-1-[4-(2-aminopyrimidin-5-yl)phenyl]-1-cyclobutylethyl}-1,2,4-oxadiazol-5-yl)-1H-pyrazol-1-yl]-N,N-dimethylacetamide] | 6.1 nM | 130 nM | 
CC(C)C(C)(c1ccc(-c2cnc(N)nc2)cc1)c1noc(-c2ccccc2)n1 (stereo not shown) [Example 2, 5-{4-[3-methyl-2-(5-phenyl-1,2,4-oxadiazol-3-yl)butan-2-yl]phenyl}pyrimidin-2-amine] | 5.1 nM | 680 nM | 
Cn1cc(-c2nc(C(C)(c3ccc(-c4cnc5[nH]ccc5n4)cc3)C3CC3)no2)cn1 (stereo not shown) [Example 273, 2-(4-{1-Cyclopropyl-1-[5-(1-methyl-1H-pyrazol-4-yl)-[1,2,4]oxadiazol-3-yl]-ethyl}-phenyl)-5H-pyrrolo[2,3-b]pyrazine] | 6.1 nM | 56 nM | 
CC(C)C(c1ccc(-c2cnc(N)nc2)cc1)c1noc(-c2cnn(C)c2)n1 (stereo not shown) [Example 67, 5-(4-{2-methyl-1-[5-(1-methyl-1H-pyrazol-4-yl)-1,2,4-oxadiazol-3-yl]propyl}phenyl)pyrimidin-2-amine] | 6.2 nM | 190 nM | 
COCCn1cc(-c2nc([C@](C)(c3ccc(-c4cnc(N)nc4)cc3)C3CC3)no2)cn1 [Example 53, 5-{4-[(1S)-1-cyclopropyl-1-{5-[1-(2-methoxyethyl)-1H-pyrazol-4-yl]-1,2,4-oxadiazol-3-yl}ethyl]phenyl}pyrimidin-2-amine] | 27 nM | 450 nM | 
CC(C)[C@@](C)(c1ccc(-c2cnc(N)nc2)cc1)c1noc(-c2cnn(CC(C)(C)O)c2)n1 [Example 108, 1-[4-(3-{(2S)-2-[4-(2-aminopyrimidin-5-yl)phenyl]-3-methylbutan-2-yl}-1,2,4-oxadiazol-5-yl)-1H-pyrazol-1-yl]-2-methylpropan-2-ol] | 8.7 nM | 320 nM | 
CC(C)C(C)(c1ccc(-c2cnc(N)nc2)cc1)c1noc(NCCS(C)(=O)=O)n1 (stereo not shown) [Example 87, 5-{4-[3-methyl-2-(5-{[2-(methylsulfonyl)ethyl]amino}-1,2,4-oxadiazol-3-yl)butan-2-yl]phenyl}pyrimidin-2-amine] | 41 nM | 970 nM | 
Cc1nc(N)cnc1-c1ccc(C(C)(c2noc(-c3cnn(CC(=O)N(C)C)c3)n2)C2CC2)cc1 (stereo not shown) [Example 245, 2-[4-(3-{1-[4-(5-Amino-3-methyl-pyrazin-2-yl)-phenyl]-1-cyclopropyl-ethyl}-[1,2,4]oxadiazol-5-yl)-pyrazol-1-yl]-N,N-dimethyl-acetamide] | 28 nM | 310 nM | 
Cc1nc(N)ncc1-c1ccc([C@@](C)(c2noc(-c3cnn(CC(=O)N(C)C)c3)n2)C2CC2)cc1 [Example 258, 2-[4-(3-{(S)-1-[4-(2-Amino-4-methyl-pyrimidin-5-yl)-phenyl]-1-cyclopropyl-ethyl}-[1,2,4]oxadiazol-5-yl)-pyrazol-1-yl]-N,N-dimethyl-acetamide] | 430 nM | 2300 nM | 
Cn1cc(-c2nc([C@H](c3ccc(-c4cnc(N)nc4)cc3)C(C)(C)C)no2)cn1 [Example 66, 5-(4-{(1S)-2,2-dimethyl-1-[5-(1-methyl-1H-pyrazol-4-yl)-1,2,4-oxadiazol-3-yl]propyl}phenyl)pyrimidin-2-amine] | 11 nM | 330 nM | 
C[C@](c1ccc(-c2cnc(N)nc2)cc1)(c1noc(-c2cnn(C3COC3)c2)n1)C1CCC1 [Example 103, 5-{4-[(1S)-1-cyclobutyl-1-{5-[1-(oxetan-3-yl)-1H-pyrazol-4-yl]-1,2,4-oxadiazol-3-yl}ethyl]phenyl}pyrimidin-2-amine] | 130 nM | 2700 nM | 
CC(C)[C@@](C)(c1ccc(-c2cnc(N)nc2)cc1)c1noc(-c2cnn(C)c2)n1 (single isomer, unassigned) [Example 47] |  | 360 nM | 7.7 nM
Cc1ccc(-c2nc(C(C)(C)c3ccc(-c4cnc(N)nc4)cc3)no2)cn1 [Example 37, 5-(4-{2-[5-(6-methylpyridin-3-yl)-1,2,4-oxadiazol-3-yl]propan-2-yl}phenyl)pyrimidin-2-amine] | 7.4 nM | 250 nM | 
CC(c1ccc(-c2cnc(N)nc2)cc1)(c1noc(-c2cc[nH]n2)n1)C1CC1 (stereo not shown) [Example 25, 5-(4-{1-cyclopropyl-1-[5-(1H-pyrazol-3-yl)-1,2,4-oxadiazol-3-yl]ethyl}phenyl)pyrimidin-2-amine] | 6 nM | 170 nM | 
CC(C)C(C)(c1ccc(-c2cnc(N)nc2)cc1)c1noc(-c2ncc[nH]2)n1 (stereo not shown) [Example 20, 5-(4-{2-[5-(1H-imidazol-2-yl)-1,2,4-oxadiazol-3-yl]-3-methylbutan-2-yl}phenyl)pyrimidin-2-amine] | 10 nM | 3200 nM | 
CN(C)C(=O)Cn1cc(-c2nc(C(C)(c3ccc(-c4cnc5[nH]ccc5n4)cc3)C3CC3)no2)cn1 (stereo not shown) [Example 247, 2-[4-(3-{1-Cyclopropyl-1-[4-(5H-pyrrolo[2,3-b]pyrazin-2-yl)-phenyl]-ethyl}-[1,2,4]oxadiazol-5-yl)-pyrazol-1-yl]-N,N-dimethyl-acetamide] | 5.9 nM | 300 nM | 

Continued, in another order:

IC50 [1, 3] | IC50 [2] | SMILES | IC50 [1]
3.9 nM | 200 nM | CC(c1ccc(-c2cnc(N)nc2)cc1)(c1noc(-c2cnn(C3COC3)c2)n1)C1CCC1 (stereo not shown) [Example 99, 5-[4-(1-cyclobutyl-1-{5-[1-(oxetan-3-yl)-1H-pyrazol-4-yl]-1,2,4-oxadiazol-3-yl}ethyl)phenyl]pyrimidin-2-amine] | 
1.4 nM | 250 nM | CC(C)C(C)(c1ccc(-c2cnc(N)nc2)cc1)c1noc(-c2ccc(N3CCOCC3)nc2)n1 (stereo not shown) [Example 135, 5-[4-(3-methyl-2-{5-[6-(morpholin-4-yl)pyridin-3-yl]-1,2,4-oxadiazol-3-yl}butan-2-yl)phenyl]pyrimidin-2-amine] | 
1.6 nM | 190 nM | Cc1n[nH]c(C)c1-c1nc(C(C)(c2ccc(-c3cnc(N)nc3)cc2)C(C)C)no1 (stereo not shown) [Example 133, 5-(4-{2-[5-(3,5-dimethyl-1H-pyrazol-4-yl)-1,2,4-oxadiazol-3-yl]-3-methylbutan-2-yl}phenyl)pyrimidin-2-amine] | 
2.2 nM | 180 nM | C[C@@](c1ccc(-c2cnc(N)nc2)cc1)(c1noc(-c2cnc(N3CCNCC3)cn2)n1)C1CC1 [Example 196, 5-(4-{(R)-1-Cyclopropyl-1-[5-(3,4,5,6-tetrahydro-2H-[1,2′]bipyrazinyl-5′-yl)-[1,2,4]oxadiazol-3-yl]-ethyl}-phenyl)-pyrimidin-2-ylamine] | 
1.9 nM | 28 nM | Cc1cc(-c2ccc([C@](C)(c3noc(-c4cnn(C)c4)n3)C3CC3)cc2)cnc1N [Example 185, 5-(4-{(R)-1-Cyclopropyl-1-[5-(1-methyl-1H-pyrazol-4-yl)-[1,2,4]oxadiazol-3-yl]-ethyl}-phenyl)-3-methyl-pyridin-2-ylamine] | 
1.6 nM | 310 nM | Cc1ccc(-c2nc(C(C)(c3ccc(-c4cnc(N)nc4)cc3)C(C)C)no2)cn1 (stereo not shown) [Example 4, 5-(4-{3-methyl-2-[5-(6-methylpyridin-3-yl)-1,2,4-oxadiazol-3-yl]butan-2-yl}phenyl)pyrimidin-2-amine] | 
4.5 nM | 51 nM | Cn1cc(-c2nc(C(C)(c3ccc(-c4cnc5c(c4)CCN5)cc3)C3CC3)no2)cn1 (stereo not shown) [Example 256, 5-(4-{1-Cyclopropyl-1-[5-(1-methyl-1H-pyrazol-4-yl)-[1,2,4]oxadiazol-3-yl]-ethyl}-phenyl)-2,3-dihydro-1H-pyrrolo[2,3-b]pyridine] | 
3.9 nM | 140 nM | CC(C)(O)CNc1cnc(-c2nc([C@](C)(c3ccc(-c4cnc(N)nc4)cc3)C3CC3)no2)cn1 [Example 51, 1-{[5-(3-{(1S)-1-[4-(2-aminopyrimidin-5-yl)phenyl]-1-cyclopropylethyl}-1,2,4-oxadiazol-5-yl)pyrazin-2-yl]amino}-2-methylpropan-2-ol] | 
2 nM | 180 nM | CC(C)C(C)(c1ccc(-c2cnc(N)nc2)cc1)c1noc(-c2cncnc2)n1 (stereo not shown) [Example 129, 5-(4-{3-methyl-2-[5-(pyrimidin-5-yl)-1,2,4-oxadiazol-3-yl]butan-2-yl}phenyl)pyrimidin-2-amine] | 
1.1 nM | 59 nM | CNC(=O)Cn1cc(-c2nc(C(C)(c3ccc(-c4cnc(N)nc4)cc3)C(C)C)no2)cn1 (stereo not shown) [Example 142, 2-[4-(3-{2-[4-(2-aminopyrimidin-5-yl)phenyl]-3-methylbutan-2-yl}-1,2,4-oxadiazol-5-yl)-1H-pyrazol-1-yl]-N-methylacetamide] | 
1.3 nM | 240 nM | CC(C)[C@@](C)(c1ccc(-c2cnc(N)nc2)cc1)c1noc(-c2cn[nH]c2)n1 [Example 78, 5-(4-{(2S)-3-methyl-2-[5-(1H-pyrazol-4-yl)-1,2,4-oxadiazol-3-yl]butan-2-yl}phenyl)pyrimidin-2-amine] | 
2.4 nM | 26 nM | COCCn1cc(-c2nc([C@@](C)(c3ccc(-c4cnc(N)nc4)cc3)C3CC3)no2)cn1 [Example 52, 5-{4-[(1R)-1-cyclopropyl-1-{5-[1-(2-methoxyethyl)-1H-pyrazol-4-yl]-1,2,4-oxadiazol-3-yl}ethyl]phenyl}pyrimidin-2-amine] | 
